What was measured:
Type in all cases: cell-based
[1] = system: ERK and AKT phosphorylation in KYM-1, MG-63, Hs-683 cells; experiment: Western blots in KYM-1, MG-63 and Hs-683 cells (data not shown); conditions: 24 h
Experimental: The indicated cell lines were seeded on 6-well-plates at a density of 500000 cells/well, left for 24 h to attach and then treated with a final concentration of 1 nM of the indicated compounds for another 24 h. Growth media were then removed, cells were washed twice with ice-cold PBS and lysed in 50 mmol/L Tris pH 7.5, 120 mmol/L NaCl, 20 mmol/L NaF, 1 mmol/L EDTA, 6 mmol/L EGTA, 1 mmol/L Benzamidin, 0.2 mmol/L PMSF, 100 mmol/L sodium vanadate, 1% NP-40. The protein concentration of cleared lysates was determined with the BCA Protein Assay Kit. 80 μg protein of each sample was separated by SDS-PAGE on NuPage 4-12% Tris-Bis Midi gels, transferred to a PVDF-membrane, and probed with antibodies as listed above. After washing and incubation with secondary HRP-linked antibodies, bands were visualized using ECL detection reagent.

KYM-1 cells = experiment: Combination assay (concentration matrix, resazurin, Loewe synergy) in KYM-1; conditions: KYM-1, checkerboard layout, monolayer / non-adherent / semi-solid media
Experimental: Combinatorial anti-proliferative effects of Cpd. B (“B) in the tables below) and BGJ398 (“C” in the tables below) were measured in KYM-1, MG-63, and Hs-683 cells on 96-well-plates using the concentration matrix depicted below:
Cells were grown under three different conditions (see FIG. 7): Experiments labeled “monolayer” were conducted on regular tissue culture plates, allowing cells to adhere and eventually form a monolayer. Cells were seeded on 3 plates per experiment (triplicates) in standard growth media as described above at a density of 5000 per well. Six to eight wells on a separate plate were seeded to quantify the amount of viable cells at the point of compound addition. […] At the same time, viable cells on the separate plate mentioned above were quantified using a resazurin sodium salt dye reduction readout. […] Quantification of Synergy was done using the methods described in G. R. Zimmermann et al., Drug Discovery Today, Vol. 12, No. ½, 2007, pages 34 to 42, and especially J. Lehár et al., Nature Biotechnology Vol. 27, No. 7, 2009, pages 659 to 666, in short by iteratively calculating the Loewe additive response ILoewe (X, Y) at each dose matrix point from the single-agent response curves, and then summing the differences between ILoewe and the experimental data. […]

[2] = system: phosphorylation of MET, FRS2, ERK, AKT in RT-112; experiment: Western blots of protein phosphorylation in RT-112 cells
Experimental: Western Blots (Figures not Shown) MKN-45 and RT-112 cells were treated in 6-well plates for 2 hours and 18 hours in the presence or absence of purified protein (rhFGF7, rhNRG1-31, or rhHGF), and/or inhibitor (Cpd. B, Cpd. A, BGJ398). Following wash with ice-cold PBS, cells were lysed with RIPA buffer (Thermo) containing phosphatase (Thermo) and proteinase (Roche) inhibitor cocktails. Total protein was quantified by bicinchoninic protein assay (Pierce). Aliquots of 20 μg were resolved by electrophoresis on NuPAGE SDS-PAGE 4-12% BIS-Tris gels before transfer to nitrocellulose membranes. Membranes were blocked for one hour at room temperature before overnight incubation at 4° C. with the following primary antibodies (source rabbit, 1:1000 final dilution): anti-phospho-Akt (Ser473), anti-phospho-MET (Tyr1234/1235), anti-phospho-MAPK/ERK(1/2) (Thr202/Tyr204), anti-AKT, anti-MAPK/Erk(1/2), and anti-α/β-Tubulin . Anti-MET was probed at 1:800 final dilution An internal antibody was used for phospho-FRS2(Y346) (1:1500 dilution). Membranes were then washed 3 times in PBS+0.1% Tween before addition of secondary antibody, IRDye 680LT goat anti-rabbit IgG , dilution 1:15000. After one hour at room temperature, membranes were washed and bands were visualized using an Odyssey Infrared Imager.

Structure (SMILES) | inhibition of own target as single agent (Western blot) [1] | growth suppression (KYM-1 cells) | FRS2 and ERK phosphorylation ([2]; RT-112, absence of ligands) | prevention of HGF rescue of ERK phosphorylation ([2]; RT-112, BGJ398 plus HGF, simultaneous addition) | MET phosphorylation ([2]; RT-112, absence of ligands)
CCN1CCN(c2ccc(Nc3cc(N(C)C(=O)Nc4c(Cl)c(OC)cc(OC)c4Cl)ncn3)cc2)CC1 [BGJ398, 3-(2,6-dichloro-3,5-dimethoxy-phenyl)-1-{6-[4-(4-ethylpiperazin-1-yl)-phenylamino]-pyrimidin-4-yl}-1-methyl-urea] | effectively inhibited its own target | partial growth suppression | reduced both FRS2 and ERK phosphorylation |  | 
CNC(=O)c1ccc(-c2cnc3ncc(Cc4ccc5ncccc5c4)n3n2)cc1F [Cpd. B, 2-fluoro-N-methyl-4-[(7-quinolin-6-yl-methyl)-imidazo[1,2-b]triazin-2-yl]benzamide] | effectively inhibited its own target | no effect |  | prevented this rescue effect | specifically inhibited MET phosphorylation

From US20150051210A1, “Tyrosine Kinase Inhibitor Combinations and their Use” (Novartis AG, priority 2012, published 2015)
